Laboratory results taken from patent US7160903B2, “Sulfonylaminocarboxylic acids” (Sanofi-Aventis Deutschland GmbH, priority 1997, dated 2007).

What was measured:
[1] = target: T1, stromelysin (MMP-3) (Homo sapiens, UniProt P08254); assay: Enzymatic activity of the catalytic domain of human stromelysin (fluorogenic substrate); format: biochemical; conditions: pH=6.5, 15 min preincubation, fluorescence 328 nm (ex)/393 nm (em)
T1 construct: enzymatic activity of the catalytic domains of human stromelysin and of neutrophil collagenase; made in house
Description: (§1) Preparation and determination of the enzymatic activity of the catalytic domains of human stromelysin and of neutrophil collagenase:
(§2) The enzymes stromelysin (MMP-3) and neutrophil collagenase (MMP-8) were prepared according to Ye et al. (Biochemistry; 31 (1992) pages 11231–11235). To measure the enzyme activity or the enzyme inhibitor action, 70 μl of buffer solution and 10 μl of enzyme solution are incubated for 15 min with 10 μl of a 10% strength (v/v) aqueous dimethyl sulfoxide solution, which optionally contains the enzyme inhibitor. After addition of 10 μl of a 10% strength (v/v) aqueous dimethyl sulfoxide solution which contains 1 mmol/L of the substrate, the enzyme reaction is monitored by fluorescence spectroscopy (328 nm (ex)/393 nm(em)). The enzyme activity is shown as the extinction increase/min. The IC50 values listed in Table 2 are determined as those inhibitor concentrations which in each case led to a 50% inhibition of the enzyme.
(§3) The buffer solution contains 0.05% Brij (Sigma, Deisenhofen, Germany) and also 0.1 mol/L Tris/HCl, 0.1 mol/L NaCl, 0.01 mol/L CaCl2 and 0.1 mol/L piperazine-N,N′-bis[2-ethanesulfonic acid] (pH=6.5). The enzyme solution contains 5 μg/ml of one of the enzyme domains prepared according to Ye et al. The substrate solution contains 1 mmol/L of the fluorogenic substrate (7-methoxycoumarin-4-yl)acetyl-Pro-Leu-Gly-Leu-3-(2′,4′-dinitrophenyl)-L-2,3-diaminopropionyl-Ala-Arg-NH2 (Bachem, Heidelberg, Germany).

[2] = target: T2, neutrophil collagenase (MMP-8) (Homo sapiens, UniProt P22894); assay: Enzymatic activity of the catalytic domain of neutrophil collagenase (fluorogenic substrate); format: biochemical; conditions: pH=6.5, 15 min preincubation, fluorescence 328 nm (ex)/393 nm (em), read-out: Neutr. collagenase IC50
T2 construct: enzymatic activity of the catalytic domains of human stromelysin and of neutrophil collagenase; made in house
Description: as §1, §2, §3

T2 sequence (P22894 100-262 limits assumed): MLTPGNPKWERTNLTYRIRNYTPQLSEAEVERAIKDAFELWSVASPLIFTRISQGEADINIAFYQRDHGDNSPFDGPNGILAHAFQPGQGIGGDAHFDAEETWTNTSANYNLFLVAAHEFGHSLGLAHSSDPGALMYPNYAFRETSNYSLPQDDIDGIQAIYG
T1 sequence (P08254 100-272 limits assumed): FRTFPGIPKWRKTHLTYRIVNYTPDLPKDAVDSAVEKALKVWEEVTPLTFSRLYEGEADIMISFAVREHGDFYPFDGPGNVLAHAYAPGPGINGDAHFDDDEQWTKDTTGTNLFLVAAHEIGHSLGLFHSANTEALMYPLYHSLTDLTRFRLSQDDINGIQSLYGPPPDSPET

## CSCC[C@@H](NS(=O)(=O)c1ccc(-c2ccc(N(C)C)cc2)cc1)C(=O)O [Example 11]
[1]
  IC50: 90 nM
[2]
  IC50: 3 nM
other
  melting point: 180 to 186 °C

## O=C(O)[C@@H](Cc1ccccc1)NS(=O)(=O)c1ccc(-c2ccc(C(F)(F)F)cc2)cc1 [Example 20]
[1]
  IC50: 400 nM
[2]
  IC50: 20 nM
other
  melting point: 159 to 162 °C

## O=C(O)[C@@H](Cc1cccs1)NS(=O)(=O)c1ccc(-c2ccc(Cl)cc2)cc1 [Example 27]
[1]
  IC50: 200 nM
[2]
  IC50: 10 nM
other
  melting point: > 200 °C (dec.)

## O=C(O)[C@H](Cc1cn(S(=O)(=O)c2ccc(Oc3ccccc3)cc2)cn1)NS(=O)(=O)c1ccc(Oc2ccccc2)cc1 [Example 31]
[1]
  IC50: 1000 nM
[2]
  IC50: 50 nM
other
  melting point: 120 to 122 °C

## Br.CN(C)c1ccc(-c2ccc(S(=O)(=O)N[C@@H](CC(=O)O)C(=O)O)cc2)cc1 [Example 40]
[1]
  IC50: 70 nM
[2]
  IC50: 2 nM
other
  melting point: 121 to 127 °C

## CC(C)C[C@H](NC(=O)CC[C@H](NS(=O)(=O)c1ccc(-c2ccccc2)cc1)C(=O)O)C(=O)O [Example 56]
[1]
  IC50: 30 nM
[2]
  IC50: 5 nM
other
  melting point: 93 to 95 °C

## CSCC[C@H](NC(=O)CC[C@H](NS(=O)(=O)c1ccc(-c2ccccc2)cc1)C(=O)O)C(=O)O [Example 58]
[1]
  IC50: 40 nM
[2]
  IC50: 6 nM
other
  melting point: 159 to 161 °C

## O=C(O)CC[C@H](NS(=O)(=O)c1ccc(-c2ccccc2)cc1)C(=O)O [Example 60]
[1]
  IC50: 600 nM
[2]
  IC50: 20 nM
other
  melting point: 145 to 146 °C

## O=C(O)CC[C@@H](NS(=O)(=O)c1ccc(-c2ccccc2)cc1)C(=O)O [Example 61]
[1]
  IC50: 400 nM
[2]
  IC50: 20 nM
other
  melting point: 155 to 158 °C

## CSCC[C@H](NC(=O)CC[C@H](NS(=O)(=O)c1ccc(-c2ccc(N(C)C)cc2)cc1)C(=O)O)C(=O)O [Example 62]
[1]
  IC50: 7 nM
[2]
  IC50: 2 nM
other
  melting point: 121 °C

## CN(C)c1ccc(-c2ccc(S(=O)(=O)N[C@H](Cc3c[nH]c4ccccc34)C(=O)O)cc2)cc1 [Example 66]
[1]
  IC50: 20 nM
[2]
  IC50: 2 nM
other
  melting point: 258 to 260 °C

## CSCC[C@@H](NS(=O)(=O)c1ccc(-n2nccn2)cc1)C(=O)O [Example 67]
[1]
  IC50: 1000 nM
[2]
  IC50: 200 nM
other
  melting point: 155.5 to 156.5 °C

## O=C(O)[C@@H](Cc1c[nH]c2ccccc12)NS(=O)(=O)c1ccc(-n2nccn2)cc1 [Example 68]
[1]
  IC50: 400 nM
[2]
  IC50: 100 nM
other
  melting point: 131 to 134 °C

## CN(C)c1ccc(-c2ccc(S(=O)(=O)N[C@@H](CCC(=O)O)C(=O)O)cc2)cc1 [Example 70]
[1]
  IC50: 100 nM
[2]
  IC50: 3 nM
other
  melting point: > 108 °C (dec.)

## O=C(O)[C@@H](Cc1c[nH]c2ccccc12)NS(=O)(=O)c1ccc(-c2ccc(N3CCCC3)cc2)cc1 [Example 71]
[1]
  IC50: 10 nM
[2]
  IC50: 2 nM
other
  melting point: > 145 °C (dec.)

## O=C(CC[C@H](NS(=O)(=O)c1ccc(-c2ccccc2)cc1)C(=O)O)Nc1ccccc1Cl [Example 74]
[1]
  IC50: 100 nM
[2]
  IC50: 10 nM
other
  melting point: 187.5 to 188.5 °C

## O=C(CC[C@H](NS(=O)(=O)c1ccc(-c2ccccc2)cc1)C(=O)O)Nc1ccc([N+](=O)[O-])cc1 [Example 75]
[1]
  IC50: 300 nM
[2]
  IC50: 20 nM
other
  melting point: 232 to 233 °C

## O=C(O)CC[C@H](NS(=O)(=O)c1ccc(-c2ccc(N3CCCC3)cc2)cc1)C(=O)O [Example 77]
[1]
  IC50: 4 nM
[2]
  IC50: 4 nM
other
  melting point: > 220 °C (dec.)

## O=C(CC[C@H](NS(=O)(=O)c1ccc(-c2ccccc2)cc1)C(=O)O)Nc1ccccc1 [Example 79]
[1]
  IC50: 20 nM
[2]
  IC50: 4 nM
other
  melting point: 234.5 to 235.5 °C

## O=C(CC[C@H](NS(=O)(=O)c1ccc(-c2ccc(N3CCCC3)cc2)cc1)C(=O)O)Nc1ccccc1 [Example 80]
[1]
  IC50: 7 nM
[2]
  IC50: 2 nM
other
  melting point: > 228 °C (dec.)

## CN(C)c1ccc(-c2ccc(S(=O)(=O)N[C@@H](CCC(=O)Nc3ccccc3)C(=O)O)cc2)cc1 [Example 81]
[1]
  IC50: 10 nM
[2]
  IC50: 2 nM
other
  melting point: 240.5 to 241.5 °C (dec.)

## CNC(=O)c1ccc(NC(=O)CC[C@H](NS(=O)(=O)c2ccc(-c3ccccc3)cc2)C(=O)O)cc1 [Example 83]
[1]
  IC50: 1000 nM
[2]
  IC50: 20 nM
other
  melting point: 250 to 250.5 °C

## COC(=O)c1ccc(NC(=O)CC[C@H](NS(=O)(=O)c2ccc(-c3ccccc3)cc2)C(=O)O)cc1 [Example 84]
[1]
  IC50: 5000 nM
[2]
  IC50: 2 nM
other
  melting point: 245 to 245.5 °C

## O=C(CC[C@H](NS(=O)(=O)c1ccc(-c2ccccc2)cc1)C(=O)O)Nc1ccc(C(F)(F)F)cc1 [Example 85]
[1]
  IC50: 3000 nM
[2]
  IC50: 30 nM
other
  melting point: 265 °C

## N#Cc1ccc(NC(=O)CC[C@H](NS(=O)(=O)c2ccc(-c3ccccc3)cc2)C(=O)O)cc1 [Example 86]
[1]
  IC50: 300 nM
[2]
  IC50: 10 nM
other
  melting point: 220 °C

## O=C(CC[C@H](NS(=O)(=O)c1ccc(-c2ccc(Cl)cc2)cc1)C(=O)O)Nc1ccc(F)cc1 [Example 87]
[1]
  IC50: 30 nM
[2]
  IC50: 5 nM
other
  melting point: > 245 °C (dec.)

## COc1ccc(NC(=O)CC[C@H](NS(=O)(=O)c2ccc(-c3ccccc3)cc2)C(=O)O)cc1 [Example 89]
[1]
  IC50: 300 nM
[2]
  IC50: 20 nM
other
  melting point: 219 to 221 °C

## O=C(CC[C@H](NS(=O)(=O)c1ccc(-c2ccc(N3CCCC3)cc2)cc1)C(=O)O)Nc1ccc(F)cc1 [Example 90]
[1]
  IC50: 10 nM
[2]
  IC50: 2 nM
other
  melting point: > 245 °C (dec.)

## O=C(CC[C@H](NS(=O)(=O)c1ccc(-c2ccccc2)cc1)C(=O)O)Nc1ccc(F)cc1 [Example 91]
[1]
  IC50: 300 nM
[2]
  IC50: 10 nM
other
  melting point: > 258 °C (dec.)

## O=C(CC[C@H](NS(=O)(=O)c1ccc(-c2ccccc2)cc1)C(=O)O)N[C@@H](Cc1ccccc1)C(=O)O [Example 92]
[1]
  IC50: 30 nM
[2]
  IC50: 4 nM
other
  melting point: 123.5 to 124.5 °C

## O=C(O)[C@H](CCc1nc2ccccc2[nH]1)NS(=O)(=O)c1ccc(-c2ccccc2)cc1 [Example 93]
[1]
  IC50: 200 nM
[2]
  IC50: 20 nM
other
  melting point: > 250 °C (dec.)

## NC(=O)CC[C@H](NC(=O)CC[C@H](NS(=O)(=O)c1ccc(-c2ccccc2)cc1)C(=O)O)C(=O)O [Example 95]
[1]
  IC50: 300 nM
[2]
  IC50: 20 nM
other
  melting point: > 110 °C (dec.)

## O=C(CC[C@H](NS(=O)(=O)c1ccc(-c2ccccc2)cc1)C(=O)O)Nc1ccc(F)c(Cl)c1 [Example 96]
[1]
  IC50: 600 nM
[2]
  IC50: 20 nM
other
  melting point: > 245 °C (dec.)

## O=C(CC[C@H](NS(=O)(=O)c1ccc(-c2ccccc2)cc1)C(=O)O)Nc1ccncc1 [Example 97]
[1]
  IC50: 1000 nM
[2]
  IC50: 30 nM
other
  melting point: > 290 °C (dec.)

## CCN(C(=O)CC[C@H](NS(=O)(=O)c1ccc(-c2ccccc2)cc1)C(=O)O)c1ccccc1 [Example 98]
[1]
  IC50: 400 nM
[2]
  IC50: 30 nM
other
  melting point: > 155 °C (dec.)

## CC(=O)Nc1ccc(NC(=O)CC[C@H](NS(=O)(=O)c2ccc(-c3ccccc3)cc2)C(=O)O)cc1 [Example 99]
[1]
  IC50: 700 nM
[2]
  IC50: 50 nM
other
  melting point: > 230 °C (dec.)
